Reference: publication PMC6436930 (Molecular Cell, 2019)

Target: MbcT (Rv1989c) (Mycobacterium tuberculosis, UniProt P9WLP9)
Sequence (P9WLP9 whole entry): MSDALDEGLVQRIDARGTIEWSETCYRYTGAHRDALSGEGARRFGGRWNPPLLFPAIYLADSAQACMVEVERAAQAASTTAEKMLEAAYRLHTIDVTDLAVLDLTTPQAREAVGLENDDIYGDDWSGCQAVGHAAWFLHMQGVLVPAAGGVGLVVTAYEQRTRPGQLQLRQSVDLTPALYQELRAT

Question: For `NC(=O)c1ccc[n+]([C@@H]2O[C@H](COP(=O)(O)OP(=O)(O)OC[C@H]3O[C@@H](n4cnc5c(N)ncnc54)[C@H](O)[C@@H]3O)[C@@H](O)[C@H]2O)c1` [NAD^+], which Km is on record?
Answer: The Km was 110 ± 8 µM.
